Holding throughout (settings): Oryctolagus cuniculus
The nature of test [1]: Antiplatelet activity against washed rabbit platelet assessed as arachidonic acid-induced platelet aggregation at 50 ug/mL preincubated 3 mins before arachidonic acid challenge by turbidimetric method.
Test [2] in a line: Antiplatelet activity against washed rabbit platelet assessed as platelet activating factor-induced platelet aggregation at 50 ug/mL preincubated 3 mins before PAF challenge by turbidimetric method.
Test [3] can be described thus: Antiplatelet activity against washed rabbit platelet assessed as collagen-induced platelet aggregation at 50 ug/mL pre-incubated 3 mins before collagen challenge by turbidimetric method.
Test [4] in a line: Antiplatelet activity against washed rabbit platelet assessed as arachidonic acid-induced platelet aggregation at 100 ug/mL pre-incubated 3 mins before arachidonic acid challenge by turbidimetric method.
Test [5] is described as follows: Antiplatelet activity against washed rabbit platelet assessed as platelet activating factor-induced platelet aggregation at 100 ug/mL pre-incubated 3 mins before PAF challenge by turbidimetric method.
Test [6] in a line: Antiplatelet activity against washed rabbit platelet assessed as collagen-induced platelet aggregation at 100 ug/mL pre-incubated 3 mins before collagen challenge by turbidimetric method.
Test [7] in a line: Antiplatelet activity against washed rabbit platelet assessed as thrombin-induced platelet aggregation at 100 ug/mL pre-incubated 3 mins before thrombin challenge by turbidimetric method.
A short description of test [8]: Antiplatelet activity against washed rabbit platelet assessed as collagen-induced platelet aggregation at 20 ug/mL pre-incubated 3 mins before collagen challenge by turbidimetric method.
Test [9] is described as follows: Antiplatelet activity against washed rabbit platelet assessed as arachidonic acid-induced platelet aggregation at 20 ug/mL pre-incubated 3 mins before arachidonic acid challenge by turbidimetric method.
The nature of test [10]: Antiplatelet activity against washed rabbit platelet assessed as platelet activating factor-induced platelet aggregation at 20 ug/mL pre-incubated 3 mins before PAF challenge by turbidimetric method.
Test [11] can be described thus: Antiplatelet activity against washed rabbit platelet assessed as thrombin-induced platelet aggregation at 20 ug/mL pre-incubated 3 mins before thrombin challenge by turbidimetric method.
A short description of test [12]: Antiplatelet activity against washed rabbit platelet assessed as thrombin-induced platelet aggregation at 50 ug/mL preincubated 3 mins before thrombin challenge by turbidimetric method.
A short description of test [13]: Antiplatelet activity against washed rabbit platelet assessed as arachidonic acid-induced platelet aggregation at 5 ug/mL pre-incubated 3 mins before arachidonic acid challenge by turbidimetric method.
Test [14] can be described thus: Antiplatelet activity against washed rabbit platelet assessed as arachidonic acid-induced platelet aggregation at 10 ug/mL pre-incubated 3 mins before arachidonic acid challenge by turbidimetric method.

As for `COc1cc2nc3occc3c(OC)c2cc1OC` [KOKUSAGININE], the figures for the Aggregation % at 50 µg/mL in test [1], in test [2] and in [3] were 0%, 88.9% and 80.6%, respectively. For the same compound, the Aggregation % at 100 µg/mL in test [4] came out at 0%; in test [5] it was 70.7%; in test [6], 15.2%.
In the case of `COc1cc(C(=O)O)cc(OC)c1O` [SYRINGIC ACID], the Aggregation % at 100 µg/mL in test [7] was 88.3%; in test [4], 83.2%; in test [5] it was 89.6%; in test [6], 85.1%.
In the case of `CC(C)=CCc1c(O)ccc2ccc(=O)oc12` [OSTHENOL], the Aggregation % at 50 µg/mL was determined as 84.8% in [1] and 79.2% in [3]. Also, the Aggregation % at 100 µg/mL was found to be 90.4% in [7], 23.2% in test [4], 89.8% in test [5] and 13.7% in test [6]. In [8], the Aggregation % at 20 µg/mL was determined as 87%.
With `COc1ccc2ccc(=O)oc2c1CC=C(C)C` [OSTHOLE], the Aggregation % at 50 µg/mL in test [1] turned out to be 52.6%; in [2], 88.6%; in test [3] it was 7%. The Aggregation % at 100 µg/mL was 86.6% in [7], 0% in [4], 0% in [5] and 7.4% in test [6]. Further, the Aggregation % at 20 µg/mL amounted to 84.5% in [9], 88.1% in test [8] and 90% in [10].
Consider `CCCCCCCC/C=C\CCCCCCCC(=O)OC` [METHYL OLEATE], for which the Aggregation % at 20 µg/mL amounted to 86.7% in test [11], 81.7% in [9], 84.4% in test [8] and 89.4% in test [10].
Turning to `CC(=O)Oc1ccccc1C(=O)O` [ASPIRIN], the figures for the Aggregation % at 50 µg/mL in test [1], in test [2] and in test [3] were 7.8%, 91.2% and 88.4%, respectively. In addition, the Aggregation % at 20 µg/mL in test [9] came out at 11.7%. Further, the aggregation at 50 µg/mL in test [12] turned out to be 94.2%.
As for `COc1ccc2c(OC)c3c(nc2c1OC)O[C@H](C(C)(C)O)C3`, the Aggregation % at 100 µg/mL amounted to 86.5% in test [7], 81.7% in [4], 89.8% in test [5] and 84.4% in test [6].
`COc1cc(O)c2c(=O)c(OC)c(-c3ccc(OC)c(O)c3)oc2c1` [AYANIN]: in test [13], the Aggregation % at 5 µg/mL is 81.9%. Moreover, the Aggregation % at 50 µg/mL in test [1] worked out at 38%; in test [3], 66.1%. Besides, the Aggregation % at 100 µg/mL turned out to be 85.4% in test [7], 13.3% in [4], 88.3% in [5] and 43.1% in test [6]. In addition, in test [14], the Aggregation % at 10 µg/mL worked out at 77.2%. Further, the Aggregation % at 20 µg/mL amounted to 66.3% in test [9] and 80.3% in test [8].
As for `COc1ccc2c(OC)c3c(nc2c1OC)O[C@@H](C(C)(C)O)[C@H]3O`, the Aggregation % at 100 µg/mL is 85.4% in [7], 78.3% in test [4], 89.4% in [5] and 79% in [6].
Regarding `COc1c2ccc(O)cc2nc2occc12` [CONFUSAMELINE], the Aggregation % at 100 µg/mL was 0% in [4], 78.6% in test [5] and 11.4% in test [6].
As for `COCc1c(OC)c2ccc(OC)cc2[nH]c1=O` [SEMECARPIFOLINE], the Aggregation % at 100 µg/mL in test [7] is 85.8%; in test [4], 81%; in test [5], 88.8%; in test [6], 82.7%.
